Consider two compounds from publication PMC7926675, “Rainbow Trout (Oncorhynchus mykiss) Na^+/H^+ Exchangers tNhe3a and tNhe3b Display Unique Inhibitory Profiles Dissimilar from Mammalian NHE Isoforms” (International Journal of Molecular Sciences, 2021).

In assay [1] the target is T1, tNhe3a (trout Na+/H+ exchanger Nhe3a) (Oncorhynchus mykiss, UniProt A4GWV2).
T1 construct: gene NHE3; GFP-tagged tNhe3a (cDNA identical to NM_001130995) stably expressed in NHE-deficient AP-1 cells
T1 sequence (A4GWV2 1-752): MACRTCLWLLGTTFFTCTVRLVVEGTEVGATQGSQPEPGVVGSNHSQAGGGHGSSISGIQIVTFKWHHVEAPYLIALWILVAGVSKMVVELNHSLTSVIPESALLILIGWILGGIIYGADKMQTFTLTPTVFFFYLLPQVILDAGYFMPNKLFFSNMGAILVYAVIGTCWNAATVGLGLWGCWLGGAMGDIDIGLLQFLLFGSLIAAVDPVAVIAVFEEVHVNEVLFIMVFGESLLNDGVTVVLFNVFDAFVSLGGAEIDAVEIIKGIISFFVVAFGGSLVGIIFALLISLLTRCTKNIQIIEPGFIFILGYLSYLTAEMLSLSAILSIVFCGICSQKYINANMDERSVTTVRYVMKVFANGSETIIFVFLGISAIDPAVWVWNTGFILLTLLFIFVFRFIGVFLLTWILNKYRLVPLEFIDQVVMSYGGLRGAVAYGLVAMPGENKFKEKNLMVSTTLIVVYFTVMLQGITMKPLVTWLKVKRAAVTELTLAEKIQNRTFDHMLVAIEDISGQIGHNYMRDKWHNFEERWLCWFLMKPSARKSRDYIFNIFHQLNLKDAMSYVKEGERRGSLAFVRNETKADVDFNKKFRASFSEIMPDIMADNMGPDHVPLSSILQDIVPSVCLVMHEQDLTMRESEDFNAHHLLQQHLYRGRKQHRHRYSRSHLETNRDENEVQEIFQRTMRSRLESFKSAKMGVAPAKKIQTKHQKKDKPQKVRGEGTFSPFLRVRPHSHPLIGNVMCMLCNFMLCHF
Nature of the assay: two-pulse ammonium chloride acid-load pHi recovery assay (BCECF) in stably transfected AP-1 cells, background subtracted. Format: cell-based.

For assay [2], the target named is T2, tNhe3b (trout Na+/H+ exchanger Nhe3b) (Oncorhynchus mykiss, UniProt B6VDZ5).
T2 construct: GFP-tagged tNhe3b (cDNA identical to FJ376630.1) stably expressed in NHE-deficient AP-1 cells
T2 sequence (B6VDZ5 1-842): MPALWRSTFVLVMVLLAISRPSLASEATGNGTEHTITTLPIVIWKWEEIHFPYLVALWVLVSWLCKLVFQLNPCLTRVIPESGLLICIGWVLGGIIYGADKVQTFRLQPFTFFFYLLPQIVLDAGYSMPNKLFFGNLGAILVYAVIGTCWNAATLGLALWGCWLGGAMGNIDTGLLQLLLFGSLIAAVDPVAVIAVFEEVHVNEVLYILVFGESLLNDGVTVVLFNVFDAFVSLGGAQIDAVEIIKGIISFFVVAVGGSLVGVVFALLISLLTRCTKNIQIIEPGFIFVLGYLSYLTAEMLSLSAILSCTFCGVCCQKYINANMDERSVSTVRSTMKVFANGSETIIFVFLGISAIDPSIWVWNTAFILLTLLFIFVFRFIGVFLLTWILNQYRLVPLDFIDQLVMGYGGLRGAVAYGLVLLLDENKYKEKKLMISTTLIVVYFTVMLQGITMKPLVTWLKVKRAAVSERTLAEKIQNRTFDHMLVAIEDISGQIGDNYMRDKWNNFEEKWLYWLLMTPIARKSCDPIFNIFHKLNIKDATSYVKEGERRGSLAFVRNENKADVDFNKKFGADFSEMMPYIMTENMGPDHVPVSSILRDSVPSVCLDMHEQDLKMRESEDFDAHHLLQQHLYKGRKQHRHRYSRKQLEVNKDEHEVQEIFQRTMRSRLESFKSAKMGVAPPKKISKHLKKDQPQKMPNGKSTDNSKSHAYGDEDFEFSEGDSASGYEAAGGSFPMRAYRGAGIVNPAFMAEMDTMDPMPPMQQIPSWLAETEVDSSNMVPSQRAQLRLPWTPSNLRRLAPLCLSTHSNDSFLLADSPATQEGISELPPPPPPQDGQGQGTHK
Nature of the assay: two-pulse ammonium chloride acid-load pHi recovery assay (BCECF) in stably transfected AP-1 cells; significant only at […]. Format: cell-based.

Each structure is given as a SMILES string.

As for `N=C(N)NC(=O)c1nc(Cl)c(N)nc1N` [amiloride, N-amidino-3,5-diamino-6-chloropyrazinecarboxamide], the IC50 is approximately 9.3 µM in assay [1] and approximately 335 µM in assay [2]. Consider `CCN(c1nc(N)c(C(=O)NC(=N)N)nc1Cl)C(C)C` [EIPA], for which, in assay [1], the IC50 is approximately 44 µM.
